This note sets out measurements from ChEMBL document CHEMBL3301562, “MMV Box screening against Plasmodium falciparum protein kinases and aminoacyl tRNA synthetases”.

Common to all, as to assay type: functional
The target in experiment [1] is T1, Calcium-dependent protein kinase 4 (Plasmodium falciparum (isolate 3D7), UniProt Q8IBS5).
T1 sequence (Q8IBS5 whole entry): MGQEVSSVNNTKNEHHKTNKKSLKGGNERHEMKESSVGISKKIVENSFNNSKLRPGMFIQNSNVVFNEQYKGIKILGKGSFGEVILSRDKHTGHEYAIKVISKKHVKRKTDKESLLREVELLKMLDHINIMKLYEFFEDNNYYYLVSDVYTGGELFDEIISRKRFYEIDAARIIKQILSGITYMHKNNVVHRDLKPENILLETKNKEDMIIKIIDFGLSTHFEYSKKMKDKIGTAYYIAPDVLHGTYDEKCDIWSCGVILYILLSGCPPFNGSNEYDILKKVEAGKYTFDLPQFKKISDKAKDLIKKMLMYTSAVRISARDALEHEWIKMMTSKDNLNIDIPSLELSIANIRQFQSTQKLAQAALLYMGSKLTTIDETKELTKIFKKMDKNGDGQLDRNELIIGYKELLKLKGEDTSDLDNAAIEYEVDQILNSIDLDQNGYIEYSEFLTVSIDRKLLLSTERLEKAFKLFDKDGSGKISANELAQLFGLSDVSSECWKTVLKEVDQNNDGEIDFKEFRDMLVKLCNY
The experiment is described as follows: MMV: CDPK4 Protein kinase inhibition assay using recombinant PfCDPK4, syntide2 peptide substrate, ATP and KinaseGlo to measure % inhibition at 1 uM MMV box compound.

Experiment [2] addresses T2, Mitogen-activated protein kinase (Plasmodium falciparum, UniProt Q25917).
T2 sequence (Q25917 whole entry): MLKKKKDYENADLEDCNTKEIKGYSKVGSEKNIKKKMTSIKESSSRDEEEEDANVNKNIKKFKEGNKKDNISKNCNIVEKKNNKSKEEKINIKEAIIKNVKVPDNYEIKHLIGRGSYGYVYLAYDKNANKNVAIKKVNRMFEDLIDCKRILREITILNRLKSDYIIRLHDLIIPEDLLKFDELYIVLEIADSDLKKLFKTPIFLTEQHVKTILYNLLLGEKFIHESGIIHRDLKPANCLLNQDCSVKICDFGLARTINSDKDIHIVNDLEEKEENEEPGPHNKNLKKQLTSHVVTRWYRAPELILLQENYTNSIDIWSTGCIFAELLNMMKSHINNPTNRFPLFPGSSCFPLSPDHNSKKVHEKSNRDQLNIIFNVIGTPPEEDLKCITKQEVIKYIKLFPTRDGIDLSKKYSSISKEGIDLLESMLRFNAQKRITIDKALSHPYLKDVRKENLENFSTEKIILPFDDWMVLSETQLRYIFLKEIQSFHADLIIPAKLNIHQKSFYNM
In words: Final concentrations were 1 uM ATP, 0.5 mM DTT, 1 mM MgCl2, 0.5 mg/mL BSA, and 10 ug/ml MAP2 in a buffer of 50 mM HEPES (pH 7.0). 0.5 mg/mL histone III-S served as the substrate (13); 100 uM AMP-PNP, an ATP analog, was used as a control inhibitor. Incubation time was 4 hours.

Another experiment addresses T3, Proline--tRNA ligase (Plasmodium falciparum (isolate 3D7), UniProt Q8I5R7).
T3 sequence (Q8I5R7 whole entry): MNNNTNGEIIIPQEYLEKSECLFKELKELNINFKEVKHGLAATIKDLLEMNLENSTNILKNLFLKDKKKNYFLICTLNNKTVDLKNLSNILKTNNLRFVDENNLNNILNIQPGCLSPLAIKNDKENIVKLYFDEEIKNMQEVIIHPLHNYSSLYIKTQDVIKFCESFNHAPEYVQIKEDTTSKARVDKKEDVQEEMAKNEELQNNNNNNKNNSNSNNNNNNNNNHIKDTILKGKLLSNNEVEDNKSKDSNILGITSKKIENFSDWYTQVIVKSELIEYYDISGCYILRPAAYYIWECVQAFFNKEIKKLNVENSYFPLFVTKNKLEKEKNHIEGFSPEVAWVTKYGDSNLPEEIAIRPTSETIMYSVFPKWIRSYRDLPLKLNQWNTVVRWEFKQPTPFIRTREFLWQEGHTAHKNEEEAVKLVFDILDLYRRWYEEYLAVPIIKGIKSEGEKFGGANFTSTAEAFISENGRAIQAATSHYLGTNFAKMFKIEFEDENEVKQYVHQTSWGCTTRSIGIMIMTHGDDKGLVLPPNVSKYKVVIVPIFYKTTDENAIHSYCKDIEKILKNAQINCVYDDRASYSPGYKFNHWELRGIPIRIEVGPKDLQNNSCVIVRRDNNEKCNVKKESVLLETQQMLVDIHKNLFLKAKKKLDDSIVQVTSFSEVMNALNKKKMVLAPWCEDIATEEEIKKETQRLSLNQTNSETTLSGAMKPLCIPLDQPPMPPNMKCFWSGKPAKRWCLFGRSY
In words: MMV: ProRS recombinant Plasmodium falciparum Prolyl-tRNA-synthetase, assay with yeast tRNA, ATP, and proline and 3 uM MMV malaria box compound, assay read out with kinase glo as % inhibition.

In another experiment the target is Lysine--tRNA ligase (Plasmodium falciparum (isolate 3D7), UniProt Q8IDJ8). The experiment is described as follows: MMV: KRS recombinant Plasmodium falciparum Lysyl-tRNA-synthetase, assay with yeast tRNA, ATP, and lysine and 3 uM MMV malaria box compound, assay read out with kinase glo as % inhibition.
Chain of Lysine--tRNA ligase (Q8IDJ8 whole entry): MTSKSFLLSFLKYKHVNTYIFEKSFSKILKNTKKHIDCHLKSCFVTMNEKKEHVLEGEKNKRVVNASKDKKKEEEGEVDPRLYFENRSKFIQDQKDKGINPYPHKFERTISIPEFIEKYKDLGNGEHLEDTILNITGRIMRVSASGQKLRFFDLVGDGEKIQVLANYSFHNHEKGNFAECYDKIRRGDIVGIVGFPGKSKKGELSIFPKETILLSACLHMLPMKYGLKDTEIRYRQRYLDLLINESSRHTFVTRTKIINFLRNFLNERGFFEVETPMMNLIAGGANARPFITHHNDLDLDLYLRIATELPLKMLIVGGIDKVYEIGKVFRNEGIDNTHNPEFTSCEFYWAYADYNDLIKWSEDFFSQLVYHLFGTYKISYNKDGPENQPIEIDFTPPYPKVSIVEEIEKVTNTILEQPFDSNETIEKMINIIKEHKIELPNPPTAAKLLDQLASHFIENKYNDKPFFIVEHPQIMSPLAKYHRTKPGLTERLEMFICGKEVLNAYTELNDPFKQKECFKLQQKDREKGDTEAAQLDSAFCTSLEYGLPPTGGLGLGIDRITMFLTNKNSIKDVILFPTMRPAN
The target of experiment [3] is T4, Putative uncharacterized protein pk7 (Plasmodium falciparum, UniProt O96214).
T4 sequence (O96214 whole entry): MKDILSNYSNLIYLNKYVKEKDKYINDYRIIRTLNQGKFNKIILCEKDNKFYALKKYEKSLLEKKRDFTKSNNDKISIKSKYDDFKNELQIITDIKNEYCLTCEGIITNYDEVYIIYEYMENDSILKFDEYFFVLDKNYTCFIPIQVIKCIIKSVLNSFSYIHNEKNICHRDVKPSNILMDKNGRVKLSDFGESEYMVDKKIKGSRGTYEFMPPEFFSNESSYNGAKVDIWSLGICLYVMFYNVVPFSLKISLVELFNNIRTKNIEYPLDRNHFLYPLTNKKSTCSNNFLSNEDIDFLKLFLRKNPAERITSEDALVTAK
The experiment is described as follows: Final concentrations were 1 uM ATP, 2 mM DTT, 20 mM MgCl2, 2 mM MnCl2, 0.01% BSA, and 6 ug/ml PK7, in a buffer of 20 mM Tris-HCl (pH 7.5). The enzyme itself was the only substrate present (since autophosphorylation occurs); 100 uM 1NA-PP1 was used as a control inhibitor. Incubation time was 3 hours.

The target in experiment [4] is Calcium-dependent protein kinase 1 (Plasmodium falciparum, UniProt P62344). In words: MMV: CDPK1 Protein kinase inhibition assay using recombinant PfCDPK1, syntide 2 peptide substrate, ATP and KinaseGlo to measure % inhibition at 1 uM MMV box compound.
Chain of Calcium-dependent protein kinase 1 (P62344 whole entry): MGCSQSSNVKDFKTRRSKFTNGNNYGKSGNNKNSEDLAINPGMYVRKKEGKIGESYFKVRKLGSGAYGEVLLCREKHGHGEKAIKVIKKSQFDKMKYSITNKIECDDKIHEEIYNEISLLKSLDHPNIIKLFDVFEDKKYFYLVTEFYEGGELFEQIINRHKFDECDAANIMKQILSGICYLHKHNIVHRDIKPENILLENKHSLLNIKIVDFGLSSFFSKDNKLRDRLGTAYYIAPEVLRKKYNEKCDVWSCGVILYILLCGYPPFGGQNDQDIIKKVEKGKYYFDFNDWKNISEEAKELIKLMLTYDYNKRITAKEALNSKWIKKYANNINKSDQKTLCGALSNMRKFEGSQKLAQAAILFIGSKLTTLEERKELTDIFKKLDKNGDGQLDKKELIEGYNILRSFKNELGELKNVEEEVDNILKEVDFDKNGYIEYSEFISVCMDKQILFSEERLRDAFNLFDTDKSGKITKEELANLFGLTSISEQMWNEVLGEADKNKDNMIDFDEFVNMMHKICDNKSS
For experiment [5], the target named is T5, Cdk-related protein kinase 6 (Plasmodium falciparum, UniProt O77239).
T5 sequence (O77239 whole entry): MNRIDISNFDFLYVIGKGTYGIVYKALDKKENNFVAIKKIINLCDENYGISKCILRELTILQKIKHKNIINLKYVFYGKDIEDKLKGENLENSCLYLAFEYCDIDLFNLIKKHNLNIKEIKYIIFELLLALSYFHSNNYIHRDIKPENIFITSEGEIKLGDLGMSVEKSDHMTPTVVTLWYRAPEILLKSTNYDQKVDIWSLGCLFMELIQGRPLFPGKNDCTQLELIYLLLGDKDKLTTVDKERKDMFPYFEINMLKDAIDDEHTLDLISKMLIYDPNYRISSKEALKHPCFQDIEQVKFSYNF
The experiment is described as follows: Final concentrations were 1.5 uM ATP, 5 mM MnCl2, and 15 ug/ml PK6 in a buffer of 100 mM Tris-HCl (pH 7.5). 50 ug/mL MBP was provided as the substrate; 10 uM staurosporine was used as a control inhibitor. Incubation time was 3 hours and 40 minutes.The catalytic activity of each kinase was considered proportional to ATP consumed, as determined from measurements of residual [ATP] with the luciferase-based reagent Kinase-Glo (Promega) following incubation. Luminescence (proportional to residual [ATP]) was measured on the plate readers FLx800 (BioTek Instruments, Winooski, VT, USA) and MicroBeta2.

The structures appear in SMILES notation.

On to `COc1ccc(-c2cc3c(nn2)-c2ccccc2C3=O)cc1`, for which the IC50 is greater than 1 µM in experiment [1]; greater than 1 µM in experiment [2]; greater than 2.5 µM at Proline--tRNA ligase; greater than 2.5 µM at Lysine--tRNA ligase; greater than 1 µM in experiment [3]; greater than 1 µM in experiment [4]. Also, the IC50 in experiment [5] was greater than 1 µM.
`COc1ccc(CN2CCCC(C(=O)c3ccc(C(F)(F)F)cc3)C2)c(O)c1` (stereo not drawn): the IC50 in experiment [1] was greater than 1 µM; in experiment [2] it was greater than 1 µM; at Proline--tRNA ligase it was greater than 2.5 µM; on Lysine--tRNA ligase, greater than 2.5 µM; in experiment [3] it was greater than 1 µM; in experiment [4], greater than 1 µM. The IC50 in experiment [5] was greater than 1 µM.
`Brc1ccc(Nc2nc3ccccc3nc2Nc2ccc(Br)cc2)cc1`: the IC50 in experiment [1] was greater than 1 µM; in experiment [2], greater than 1 µM; on Proline--tRNA ligase, greater than 2.5 µM; at Lysine--tRNA ligase, greater than 2.5 µM; in experiment [3] it was greater than 1 µM; in experiment [4], greater than 1 µM. In experiment [5], this compound returned an IC50 greater than 1 µM.
On to `Cc1cc(Nc2ccc(OCc3ccccc3)cc2)nc2cc(O)ccc12`, for which the IC50 was greater than 1 µM in experiment [1]; greater than 1 µM in experiment [2]; greater than 2.5 µM on Proline--tRNA ligase; greater than 2.5 µM on Lysine--tRNA ligase; greater than 1 µM in experiment [3]; greater than 1 µM in experiment [4]. This compound also gave an IC50 in experiment [5] greater than 1 µM.
As to `N=c1c2ccccc2nnn1-c1cccc(C(F)(F)F)c1`, the IC50 is greater than 1 µM in experiment [1]; greater than 1 µM in experiment [2]; greater than 2.5 µM at Proline--tRNA ligase; greater than 2.5 µM at Lysine--tRNA ligase; greater than 1 µM in experiment [3]; greater than 1 µM in experiment [4]. Further, the IC50 in experiment [5] was greater than 1 µM.
Regarding `COc1cc(-c2nc(-c3ccc(Sc4ccccc4)cc3)c(-c3ccccc3)[nH]2)cc(OC)c1O`, the IC50 in experiment [1] is greater than 1 µM; in experiment [2], greater than 1 µM; on Proline--tRNA ligase, greater than 2.5 µM; on Lysine--tRNA ligase it was greater than 2.5 µM; in experiment [3], greater than 1 µM; in experiment [4], greater than 1 µM. This compound returned an IC50 in experiment [5] greater than 1 µM.
With `OC(Cn1nnc2ccccc21)Cn1c2ccc(Br)cc2c2cc(Br)ccc21` (stereo not drawn), the IC50 in experiment [1] is greater than 1 µM; in experiment [2], greater than 1 µM; on Proline--tRNA ligase it was greater than 2.5 µM; at Lysine--tRNA ligase, greater than 2.5 µM; in experiment [3], greater than 1 µM; in experiment [4] it was greater than 1 µM. In experiment [5], this compound showed an IC50 greater than 1 µM.
`Cc1ccccc1OCCSc1nc2ccc(NC(=O)c3cccs3)cc2s1`: the half-maximal inhibitory concentration (IC50) in experiment [1] is greater than 1 µM; in experiment [2] it was greater than 1 µM; at Proline--tRNA ligase, greater than 2.5 µM; at Lysine--tRNA ligase it was greater than 2.5 µM; in experiment [3], greater than 1 µM; in experiment [4], greater than 1 µM. Besides, the IC50 in experiment [5] was greater than 1 µM.
For `Cc1ccc(-c2nc3ccccc3o2)cc1NCc1cc(Cc2ccccc2)ccc1O`, the IC50 in experiment [1] is greater than 1 µM; in experiment [2], greater than 1 µM; on Proline--tRNA ligase, greater than 2.5 µM; on Lysine--tRNA ligase, greater than 2.5 µM; in experiment [3] it was greater than 1 µM; in experiment [4], greater than 1 µM. In addition, the IC50 in experiment [5] was greater than 1 µM.
On to `COc1ccc(C(O)(CCC(C)C)C(CN2CCOCC2)c2ccc(Cl)cc2)cc1` (stereo not drawn), for which the IC50 is greater than 1 µM in experiment [1]; greater than 1 µM in experiment [2]; greater than 2.5 µM at Proline--tRNA ligase; greater than 2.5 µM on Lysine--tRNA ligase; greater than 1 µM in experiment [3]; greater than 1 µM in experiment [4]. Besides, in experiment [5], the IC50 was greater than 1 µM.
Consider `Cc1ccc(F)cc1NC(=O)c1cc(Cl)ccc1Nc1ccccc1`, for which the IC50 in experiment [1] was greater than 1 µM; in experiment [2], greater than 1 µM; at Proline--tRNA ligase, greater than 2.5 µM; on Lysine--tRNA ligase, greater than 2.5 µM; in experiment [3], greater than 1 µM; in experiment [4], greater than 1 µM. Besides, the IC50 in experiment [5] is greater than 1 µM.
Take `CCCCCCc1cc2cc(-c3nc4ccccc4[nH]3)c(=Nc3ccccc3C)oc2cc1O`: the IC50 in experiment [1] is greater than 1 µM; in experiment [2], greater than 1 µM; at Proline--tRNA ligase, greater than 2.5 µM; on Lysine--tRNA ligase, greater than 2.5 µM; in experiment [3], greater than 1 µM; in experiment [4], greater than 1 µM. Moreover, the IC50 in experiment [5] is greater than 1 µM.
On to `CCOc1c(Br)cc(C2C(C(=O)OC)=CN(C)C=C2C(=O)OC)cc1OC`, for which the IC50 was greater than 1 µM in experiment [1]; greater than 1 µM in experiment [2]; greater than 2.5 µM on Proline--tRNA ligase; greater than 2.5 µM on Lysine--tRNA ligase; greater than 1 µM in experiment [3]; greater than 1 µM in experiment [4]. Besides, in experiment [5], the IC50 was greater than 1 µM.
`CCOC(=O)c1c[nH]c2c(CC)cccc2c1=O`: the IC50 in experiment [1] is greater than 1 µM; in experiment [2] it was greater than 1 µM; on Proline--tRNA ligase, greater than 2.5 µM; on Lysine--tRNA ligase, greater than 2.5 µM; in experiment [3], greater than 1 µM; in experiment [4] it was greater than 1 µM. The compound also registered an IC50 in experiment [5] greater than 1 µM.
